The test system of this assay is collagen-induced arthritis (CIA) model rats. The assay can be described thus: Collagen-induced arthritis (CIA) model: foot volume and arthritis score. Type of assay: in vivo, DA/Slc rats. As to the method:
For 9 weeks-old female DA/Slc rats, under isoflurane anesthesia employing a simplified inhalation anesthesia device for animals (model type: NARCOBIT-E (type II), Natsume Seisakusho Co., Ltd.), the tail root which is the administration site was shaved with an electric shaver, and 0.05 mL in each of left and right sides of the tail root of all animals for a total of 0.1 mL of the symptom evoking substance administration fluid was intracutaneously administrated with a syringe (Terumo Corporation) and an injection needle (Terumo Corporation). The symptom evoking substance administration fluid was prepared by adding bovine type-II collagen and an equal amount of Incomplete Freund Adjuvant to an interchangeable glass syringe (TOP Corporation), and then mixing well.
The symptom evoking substance was administered only on Day 0, and each test substance was administered before the administration of the symptom evoking substance on the first day. MTX was suspended in 0.5 w/v % methylcellulose 400 solution (MC). ALA employed was aminolevulinic acid hydrochloride, and weights shown below are weights as aminolevulinic acid hydrochloride. […]
For measurement of foot volume, the foot volumes of left and right posterior limbs were each measured on Days 0 (before grouping), 4, 7, 11, 14, and 18 with a Plethysmometer (model type: MK-101P, Muromachi Kikai Co., Ltd.). The foot volume was measured three times per foot, and the average value of the three was calculated. The foot volume of the other foot was similarly measured. The foot volume measurement value of one individual was calculated with the following mathematical formula. […]
The measurement value before grouping was set as the Pre-value and the measurement value at each measurement point after grouping was set as the Post-value, and the value of increase in foot volume (A mL) was calculated by Post-value-Pre-value for each individual.
The arthritis score measurement was measured on each of Days 0 (before grouping), 4, 7, 11, 14, and 18. […] Note that the total sum of left and right arthritis scores was calculated as the score for that individual. […]

Setting [1] is: Day 18, oral once a day for 18 days, MTX 0.02 mg/kg, ALA 100 mg/kg, SFC 157 mg/kg.

In the case of `CN(Cc1cnc2nc(N)nc(N)c2n1)c1ccc(C(=O)N[C@@H](CCC(=O)O)C(=O)O)cc1` [MTX, (S)-2-(4-(((2,4-diaminopteridin-6-yl)methyl)methylamino)benzamido) pentanedioic acid], under setting [1], the “intergroup difference to Group 5 (control) in arthritis score” value came to 1.5 and the “intergroup difference to Group 5 (control) in value of increase in foot volume” value amounted to 0.16 mL. In addition, the “anti-inflammatory effect in CIA model rats” value (Group 1, only MTX 0.02 mg/kg oral daily) is reported as “a certain level of anti-inflammatory effect was seen”.

The values above are taken from patent publication US20250262179A1, “PHARMACEUTICAL COMPOSITION FOR PREVENTING AND/OR TREATING AUTOIMMUNE DISEASES” (NATIONAL CENTER FOR CHILD HEALTH AND DEVELOPMENT, priority 2022, published 2025).
